For the assay, the system named is IL-2 secretion by Jurkat T cells. The assay can be described thus: Inhibition of IL-2 secretion. Type of assay: cell-based. Conditions: Homo sapiens; Jurkat T cells stimulated with PHA, 20 to 24 hours, IL-2 by ELISA. Here is the method:
The CRAC channel modulatory activity of the compounds were thus evaluated by measuring the secretion of IL-2 by antigen stimulated T-cells in vitro. Alternatively, such activity can also be evaluated by assay methods known to one skilled in the art.
Inhibition of IL-2 secretion: Jurkat T cells were seeded at a density of 0.5 to 1 million cells per well in RPMI medium. Test compounds from this invention were added to the cells at different concentrations. This was followed by the addition of PHA, a T cell mitogen after 10 minutes. The cells were then incubated for 20 to 24 hours in a CO2 incubator at 37° C. After incubation with the compounds, cells were centrifuged, the supernatant was collected and processed for ELISA to quantitate the amount of IL-2 secreted. A commercial ELISA kit (R&D Systems, Inc. Minneapolis, Minn., USA) was used to estimate the IL-2 concentrations. Amount of IL-2 secreted by cells stimulated with PHA was considered as a 100% maximal signal and the decrease in amount of IL-2 secreted by cells treated with the test compounds was expressed as percent inhibition of the maximal signal. The dose response data was analyzed using 4-parametric sigmoidal dose response (variable slope) curve—fit.

pIC50: −log10 of the molar value. Bounds are passed on as bounds.

Consider `Cc1ncc(-c2nn(C)c(=O)o2)cc1-c1ccc(NC(=O)c2c(F)cccc2F)cc1` [Example 1, 2,6-Difluoro-N-(4-(2-methyl-5-(4-methyl-5-oxo-4,5-dihydro-1,3,4-oxadiazol-2-yl)pyridin-3-yl)phenyl)benzamide], for which the pIC50 is 6.00 to 7.00.

For the molecule `CCc1ncc(-c2nn(C)c(=O)o2)cc1-c1ccc(NC(=O)c2c(F)cccc2F)cc1` [Example 2, N-(4-(2-ethyl-5-(4-methyl-5-oxo-4,5-dihydro-1,3,4-oxadiazol-2-yl)pyridin-3-yl)phenyl)-2,6-difluorobenzamide], the pIC50 is more than 7.00. `CCc1ncc(-c2nn(C)c(=O)o2)cc1-c1ccc(C(=O)Nc2c(F)cccc2F)cc1` [Example 3, N-(2,6-Difluorophenyl)-4-(2-ethyl-5-(4-methyl-5-oxo-4,5-dihydro-1,3,4-oxadiazol-2-yl)pyridin-3-yl)benzamide] showed a negative logarithm of the IC50 (pIC50) of 6.00 to 7.00.

`Cn1nc(-c2cnc(C3CC3)c(-c3ccc(NC(=O)c4c(F)cccc4F)cc3)c2)oc1=O` [Example 4, N-(4-(2-Cyclopropyl-5-(4-methyl-5-oxo-4,5-dihydro-1,3,4-oxadiazol-2-yl)pyridin-3-yl)phenyl)-2,6-difluorobenzamide] had a pIC50 of more than 7.00. Consider `Cn1nc(-c2cnc(C3CC3)c(-c3ccc(C(=O)Nc4c(F)cccc4F)cc3)c2)oc1=O` [Example 5, 4-(2-cyclopropyl-5-(4-methyl-5-oxo-4,5-dihydro-1,3,4-oxadiazol-2-yl)pyridin-3-yl)-N-(2,6-difluorophenyl)benzamide], for which the pIC50 is 6.00 to 7.00.

For the molecule `COc1ncc(-c2nn(C)c(=O)o2)cc1-c1ccc(NC(=O)c2c(F)cccc2F)cc1` [Example 6, 2,6-Difluoro-N-(4-(2-methoxy-5-(4-methyl-5-oxo-4,5-dihydro-1,3,4-oxadiazol-2-yl)pyridin-3-yl)phenyl)benzamide], the negative logarithm of the IC50 (pIC50) is more than 7.00. The result for `Cn1nc(-c2cnc(C(F)(F)F)c(-c3ccc(NC(=O)c4c(F)cccc4F)cc3)c2)oc1=O` [Example 7, 2,6-difluoro-N-(4-(5-(4-methyl-5-oxo-4,5-dihydro-1,3,4-oxadiazol-2-yl)-2-(trifluoromethyl)pyridin-3-yl)phenyl)benzamide] reads more than 7.00; that for `Cc1cc(NC(=O)c2c(F)cccc2F)ccc1-c1cc(-c2nn(C)c(=O)o2)cnc1C(F)(F)F` [Example 8, 2,6-difluoro-N-(3-methyl-4-(5-(4-methyl-5-oxo-4,5-dihydro-1,3,4-oxadiazol-2-yl)-2-(trifluoromethyl)pyridin-3-yl)phenyl)benzamide], 6.00 to 7.00; that for `Cn1nc(-c2cnc(C(F)(F)F)c(-c3ccc(NC(=O)c4c(F)cccc4Cl)cc3)c2)oc1=O` [Example 9, 2-Chloro-6-fluoro-N-(4-(5-(4-methyl-5-oxo-4,5-dihydro-1,3,4-oxadiazol-2-yl)-2-(trifluoromethyl)pyridin-n-3-yl)phenyl)benzamide], 6.00 to 7.00. For the molecule `CNc1ncc(-c2nn(C)c(=O)o2)cc1-c1ccc(NC(=O)c2c(F)cccc2F)cc1` [Example 10, 2,6-Difluoro-N-(4-(5-(4-methyl-5-oxo-4,5-dihydro-1,3,4-oxadiazol-2-yl)-2-(methylamino)pyridin-3-yl)phenyl)benzamide], the pIC50 was more than 7.00.

In turn, `CNc1ncc(-c2nn(C)c(=O)o2)cc1-c1ccc(NC(=O)c2c(F)cccc2Cl)cc1` [Example 11, 2-Chloro-6-fluoro-N-(4-(5-(4-methyl-5-oxo-4,5-dihydro-1,3,4-oxadiazol-2-yl)-2-(methylamino)pyridin-3-yl)phenyl)benzamide] showed a negative logarithm of the IC50 (pIC50) of more than 7.00.

With `CNc1ncc(-c2nn(C)c(=O)o2)cc1-c1ccc(NC(=O)c2c(C)cccc2F)cc1` [Example 12, 2-Fluoro-6-methyl-N-(4-(5-(4-methyl-5-oxo-4,5-dihydro-1,3,4-oxadiazol-2-yl)-2-(methylamino)pyridin-3-yl)phenyl)benzamide], the negative logarithm of the IC50 (pIC50) is more than 7.00. Turning to `CNc1ncc(-c2nn(C)c(=O)o2)cc1-c1ccc(NC(=O)c2c(F)cccc2F)cc1C` [Example 13, 2,6-Difluoro-N-(3-methyl-4-(5-(4-methyl-5-oxo-4,5-dihydro-1,3,4-oxadiazol-2-yl)-2-(methylamino)pyridin-3-yl)phenyl)benzamide], the pIC50 was 6.00 to 7.00. The result for `Cn1nc(-c2cncc(-c3ccc(NC(=O)c4c(F)cccc4F)cc3)c2)oc1=O` [Example 14, 2,6-Difluoro-N-(4-(5-(4-methyl-5-oxo-4,5-dihydro-1,3,4-oxadiazol-2-yl)pyridin-3-yl)phenyl)benzamide] reads less than 6.00; that for `Cc1cc(NC(=O)c2c(F)cccc2F)ccc1-c1cncc(-c2nn(C)c(=O)o2)c1` [Example 15, 2,6-Difluoro-N-(3-methyl-4-(5-(4-methyl-5-oxo-4,5-dihydro-1,3,4-oxadiazol-2-yl)pyridin-3-yl)phenyl)benzamide], more than 7.00; that for `CCc1c(-c2ccc(NC(=O)c3c(F)cccc3F)cc2)cncc1-c1nn(C)c(=O)o1` [Example 16, N-(4-(4-Ethyl-5-(4-methyl-5-oxo-4,5-dihydro-1,3,4-oxadiazol-2-yl)pyridin-3-yl)phenyl)-2,6-difluorobenzamide], 6.00 to 7.00. With `CCc1c(-c2ccc(C(=O)Nc3c(F)cccc3F)cc2)cncc1-c1nn(C)c(=O)o1` [Example 17, N-(2,6-Difluorophenyl)-4-(4-ethyl-5-(4-methyl-5-oxo-4,5-dihydro-1,3,4-oxadiazol-2-yl)pyridin-3-yl)benzamide] the figure was less than 6.00. The result for `CCc1c(-c2nn(C)c(=O)o2)ccnc1-c1ccc(NC(=O)c2c(F)cccc2F)cc1` [Example 18, N-(4-(3-Ethyl-4-(4-methyl-5-oxo-4,5-dihydro-1,3,4-oxadiazol-2-yl)pyridin-2-yl)phenyl)-2,6-difluorobenzamide] reads less than 6.00. Take `CCc1c(-c2nn(C)c(=O)o2)ccnc1-c1ccc(C(=O)Nc2c(F)cccc2F)cc1` [Example 19, N-(2,6-Difluorophenyl)-4-(3-ethyl-4-(4-methyl-5-oxo-4,5-dihydro-1,3,4-oxadiazol-2-yl)pyridin-2-yl)benzamide]: the pIC50 is less than 6.00.

With `Cc1c(-c2nn(C)c(=O)o2)ccnc1-c1ccc(NC(=O)c2c(F)cccc2F)cc1` [Example 20, 2,6-Difluoro-N-(4-(3-methyl-4-(4-methyl-5-oxo-4,5-dihydro-1,3,4-oxadiazol-2-yl)pyridin-2-yl)phenyl)benzamide], the negative-log IC50 (pIC50) is less than 6.00. The result for `CCc1cnc(-c2ccc(NC(=O)c3c(F)cccc3F)cc2)cc1-c1nn(C)c(=O)o1` [Example 21, N-(4-(5-Ethyl-4-(4-methyl-5-oxo-4,5-dihydro-1,3,4-oxadiazol-2-yl)pyridin-2-yl)phenyl)-2,6-difluorobenzamide] reads less than 6.00; that for `CCc1cnc(-c2ccc(C(=O)Nc3c(F)cccc3F)cc2)cc1-c1nn(C)c(=O)o1` [Example 22, N-(2,6-Difluorophenyl)-4-(5-ethyl-4-(4-methyl-5-oxo-4,5-dihydro-1,3,4-oxadiazol-2-yl)pyridin-2-yl)benzamide], less than 6.00; that for `Cc1cc(-c2nn(C)c(=O)o2)cc(-c2ccc(NC(=O)c3c(F)cccc3F)cc2)n1` [Example 23, 2,6-Difluoro-N-(4-(6-methyl-4-(4-methyl-5-oxo-4,5-dihydro-1,3,4-oxadiazol-2-yl)pyridin-2-yl)phenyl)benzamide], less than 6.00. With `Cn1nc(-c2cc(Cl)cc(-c3ccc(NC(=O)c4c(F)cccc4F)cc3)n2)oc1=O` [Example 24, N-(4-(4-Chloro-6-(4-methyl-5-oxo-4,5-dihydro-1,3,4-oxadiazol-2-yl)pyridin-2-yl)phenyl)-2,6-difluorobenzamide] the figure was less than 6.00; with `CCOc1cc(-c2ccc(NC(=O)c3c(F)cccc3F)cc2)nc(-c2nn(C)c(=O)o2)c1` [Example 25, N-(4-(4-Ethoxy-6-(4-methyl-5-oxo-4,5-dihydro-1,3,4-oxadiazol-2-yl)pyridin-2-yl)phenyl)-2,6-difluorobenzamide], less than 6.00. On to `Cn1nc(-c2cc(-c3ccc(NC(=O)c4c(F)cccc4F)cc3)ccn2)oc1=O` [Example 26, 2,6-Difluoro-N-(4-(2-(4-methyl-5-oxo-4,5-dihydro-1,3,4-oxadiazol-2-yl)pyridin-4-yl)phenyl)benzamide], for which the negative-log IC50 (pIC50) is less than 6.00. With `Cc1cc(-c2nn(C)c(=O)o2)ncc1-c1ccc(NC(=O)c2c(F)cccc2F)cc1` [Example 27, 2,6-Difluoro-N-(4-(4-methyl-6-(4-methyl-5-oxo-4,5-dihydro-1,3,4-oxadiazol-2-yl)pyridin-3-yl)phenyl)benzamide], the pIC50 was 6.00 to 7.00. `Cc1nnsc1C(=O)Nc1ccc(-c2cc(-c3nn(C)c(=O)o3)cnc2C2CC2)cc1` [Example 28, N-(4-(2-Cyclopropyl-5-(4-methyl-5-oxo-4,5-dihydro-1,3,4-oxadiazol-2-yl)pyridin-3-yl)phenyl)-4-methyl-1,2,3-thiadiazole-5-carboxamide] gave a negative-log IC50 (pIC50) of 6.00 to 7.00. `CCc1ncc(-c2nn(C)c(=O)o2)cc1-c1ccc(NC(=O)c2c(F)cccc2F)cc1C` [Example 29, N-(4-(2-Ethyl-5-(4-methyl-5-oxo-4,5-dihydro-1,3,4-oxadiazol-2-yl)pyridin-3-yl)-3-methylphenyl)-2,6-difluorobenzamide] gave a negative logarithm of the IC50 (pIC50) of more than 7.00. With `CCc1ncc(-c2nn(C)c(=O)o2)cc1-c1ccc(NC(=O)c2c(F)cccc2F)nc1` [Example 30, N-(2′-ethyl-5′-(4-methyl-5-oxo-4,5-dihydro-1,3,4-oxadiazol-2-yl)-[3,3′-bipyridin]-6-yl)-2,6-difluorobenzamide] the figure was more than 7.00.

Values taken from patent US9399638B2, “Substituted pyridine compounds as CRAC modulators” (LUPIN LIMITED, priority 2012, dated 2016).
